Assay results as given in patent EP1180991B1, “GAMBOGIC ACID DERIVATIVES AS ACTIVATORS OF CASPASES AND INDUCERS OF APOPTOSIS” (Cytovia, Inc., priority 1999, dated 2000).

How the values were obtained:
[1] = tested on: HeLa; settings: Asano et al. 1996; cited from earlier work
[2] = tested on: HL-60 cells; test: PARP cleavage, western blot (Example 98); type: cell-based, human; settings: 2.5 µM, 2 h (Fig. 5B)
Procedure: (§1) Cleavage of the enzyme poly(ADP)ribose polymerase (PARP) by caspase-3 and related proteases is considered to be one of the molecular hallmarks of caspase-mediated apoptosis. Therefore, the ability of gambogic acid to induce PARP cleavage in four different human tumor cell lines (Jurkat cells, HL-60 cells, T47D cells and PC3 cells) was determined.
(§2) Cells were cultured in complete growth medium containing 10% FBS and treated with gambogic acid at concentrations of 2.5 µM or 5 µM for 2 to 4 h. Control cultures were treated with a drug vehicle (DMSO), or the well-characterized apoptosis inducer, staurosporine. At the end of the apoptosis induction period, the cells were harvested, washed once with PBS, quick-frozen on dry ice, and stored at -80° C. The cells were then lysed in a standard immunoblotting lysis buffer and samples of the lysates were electrophoresed on 4% to 20% gradient polyacrylamide gels. The proteins in the gels were then transferred to PVDF membranes and probed with a commercially-available rabbit polyclonal antibody to PARP.

[3] = tested on: Jurkat cells; test: PARP cleavage, western blot (Example 98); type: cell-based, human; settings: 2.5 µM, 2 h (Fig. 5A)
Procedure: as §1, §2

[4] = tested on: Jurkat T leukemia cells; test: Apoptotic morphology, phase-contrast microscope (Example 95); type: cell-based, human; settings: 10 µM
Procedure: Jurkat T leukemia cells were grown in RPMI 1640 media (Life Technologies, Inc.) + 10% FCS (Sigma Chemical Company) in a 5% CO2-95% humidity incubator at 37° C, and maintained at a cell density between 4 and 8 x 10^5 cells/ml. Cells were harvested at 200xg and resuspended at 1-2 x 10^6 cells/ml into RPMI 1640 media + 10% FCS, and 3 ml of the cells was dispensed in each of three wells of a 6-well plate. One of the wells was treated with 10 µM caspase inhibitor cbz-Val-Asp-fink (Cytovia, Inc.; WO99/18781) and the plate was incubated at 37° C in a 5% CO2-95% humidity incubator for 1 h prior to addition of gambogic acid. The wells with and without the caspase inhibitor were treated with 10 µM gambogic acid. The third well was treated with solvent (control cells). The plate was incubated at 37° C in a 5% CO2-95% humidity incubator.
At 30 min. after addition of gambogic acid an aliquot of cells from each well was taken into the capillary slides and observed under a phase-contrast microscope.

[5] = tested on: SHP-77; test: Inhibition of cell proliferation (GI50) and cell death (LC50), CellTiter 96 (Example 91); type: cell-based; settings: Homo sapiens, SHP77, SHP-77, 48 h
Procedure: (§3) T-47D, ZR-75-1, PC-3, human prostate cancer cell line DU-145, human non-small cell lung cancer cell line A-549, human small cell lung cancer cell line SHP-77, HL-60 and MRC-5 cells were grown and harvested as in Example 90. […] The samples were mixed by agitation and incubated at 37° C for 2-4 h in a 5% CO2-95% humidity incubator. […] This determines the possible background absorbance of the test compounds. No absorbance for gambogic acid or its analogs or derivatives was found at 490 nm. After the 2-4 h incubation, the samples were read for absorbance as above (ATest).
(§4) The samples were mixed by agitation and incubated at 37° C for 2-4 h in a 5% CO2-95% humidity incubator. Absorbance was read as above, (AT=0) defining absorbance for initial cell number used as baseline in GI50 determinations and (Amin) defining absorbance for media alone used as baseline in LC50 determinations.
(§5) GI50 (dose for50%inhibition of cell proliferation) 50 = 100 x [(ATest-AT = 0)/(Amax-AT = 0)] [formula] LC50 (dose for50%cell death) 50 = 100 x [(ATest-Amin)/(AT = 0-Amin)] [formula]

[6] = tested on: T-47D; test: as above; type: cell-based; settings: Homo sapiens, T47D, T-47D, 48 h
Procedure: as §3, §4, §5

[7] = tested on: ZR-75-1; test: as above; type: cell-based; settings: Homo sapiens, ZR-75-1, 48 h
Procedure: as §3, §4, §5

[8] = tested on: PC-3; test: as above; type: cell-based; settings: Homo sapiens, PC-3, 48 h
Procedure: as §3, §4, §5

[9] = tested on: A-549; test: as above; type: cell-based; settings: Homo sapiens, A549, A-549, 48 h
Procedure: as §3, §4, §5

[10] = tested on: HL-60; test: as above; type: cell-based; settings: Homo sapiens, HL-60, 48 h
Procedure: as §3, §4, §5

[11] = tested on: DU-145; test: as above; type: cell-based; settings: Homo sapiens, DU-145, 48 h
Procedure: as §3, §4, §5

[12] = tested on: T-47D; test: Caspase cascade activation assay (Example 90); type: cell-based, human; settings: T-47D, 24 h incubation
Procedure: (§6) Human breast cancer cell lines T-47D and ZR-75-1, human prostate cancer cell line PC-3, human leukemia cancer cell line HL-60 and human non-transformed fibroblast cell line MRC-5 cells were grown according to media component mixtures designated by The American Type Culture Collection + 10% FCS (Life Technologies, Inc.), in a 5% CO2 -95% humidity incubator at 37° C. T-47D, ZR-75-1 and PC-3 cells were maintained at a cell density between 30 and 80% confluency and for HL-60 at a cell density of 0.1 to 0.6 x 10^6 cells/ml. Cells were harvested at 600xg and resuspended at 0.65 x 10^6 cells/ml into appropriate media + 10% FCS. […] The samples were mixed by agitation and incubated at room temperature.
(§7) The EC50 (nM) was determined by a sigmoidal dose-response calculation (Prism 2.0, GraphPad Software Inc.). Caspase Activity and Potency

[13] = tested on: ZR-75-1; test: Caspase cascade activation assay (Example 90); type: cell-based, human; settings: ZR-75-1, 24 h incubation
Procedure: as §6, §7

[14] = tested on: HL-60; test: Caspase cascade activation assay (Example 90); type: cell-based, human; settings: HL-60, 24 h incubation
Procedure: as §6, §7

[15] = dose for 50% cell death, read-out: LC50 (the source's name)
[16] = dose for 50% inhibition of cell proliferation, read-out: GI50
[17] = 0.16 to 10 µM final, net RFU ratio to control
[18] = Homo sapiens, caspase activation, read-out: EC50

CC(C)=CCC[C@]1(C)C=Cc2c(O)c3c(c(CC=C(C)C)c2O1)O[C@]12C(=C[C@@H]4C[C@H]1C(C)(C)O[C@@]2(C/C=C(/C)C(=O)O)C4=O)C3=O [Example 1, Gambogic Acid]
cytotoxicity [1]: cytotoxic | PARP cleavage [2]: almost complete PARP cleavage | PARP cleavage [3]: almost complete PARP cleavage | apoptotic morphology ([4]; 30 min (Fig. 3B)): blebbing and cellular fragmentation | apoptotic morphology in the presence of caspase inhibitor ([4]; 30 min, with 10 µM caspase inhibitor cbz-Val-Asp-fink (Fig. 3C)): prevented the morphological changes | CC50 [5, 15]: 0.5 µM | GI50 [5, 16]: 0.5 µM | CC50 [6, 15]: 0.45 µM | GI50 [6, 16]: 0.065 µM | CC50 [7, 15]: 0.5 µM | GI50 [7, 16]: 0.4 µM | CC50 [8, 15]: 0.7 µM | GI50 [8, 16]: 0.5 µM | CC50 [9, 15]: 5 µM | GI50 [9, 16]: 0.8 µM | CC50 [10, 15]: 0.7 µM | GI50 [10, 16]: 0.5 µM | CC50 [11, 15]: 0.8 µM | GI50 [11, 16]: 0.5 µM | EC50 ([12]; Homo sapiens, T47D, caspase activation, read-out: EC50): 0.56 µM | caspase activity (Ratio) [12, 17]: 13.6 | EC50 [13, 18]: 1.4 µM | caspase activity (Ratio) [13, 17]: 11.9 | caspase activity (Ratio) [14, 17]: 6.3 | EC50 [14, 18]: 0.4 µM
